Patent US12304897B2, “15-PGDH inhibitors” (KYORIN PHARMACEUTICAL CO., LTD., priority 2019, dated 2025)

Molecular target: recombinant human 15-PGDH (Homo sapiens (Human), UniProt P15428)
Assay: 15-PGDH enzyme inhibition test
Type: biochemical
Settings: 4 nM recombinant human 15-PGDH, 30 μM PGE2, 1 mM NAD+, fluorescence 340/440 nm after 60 min
Description: 15-PGDH Enzyme Inhibition Test
Test compounds and 4 nM recombinant human 15-PGDH (R&D systems) in 50 mM Tris-HCl (pH 8.0) containing 0.01% TWEEN 20 (Sigma) and 0.01% bovine gamma globulin (Sigma) were put into 384 Flat Bottom Black plates (Corning, 3820) and allowed to stand for 12 minutes at room temperature. Then, 30 μM PGE2 (Cayman chemical) and 1 mM NAD^+ (Sigma) were added to start reaction. Sixty minutes after the start of reaction, signals were measured at an excitation wavelength of 340 nm and a fluorescence emission wavelength of 440 nm using Synergy 2 (BioTeck). The intensity of the fluorescent signal obtained when an assay buffer was added in place of the test compounds and NAD^+ was defined as 100% and that obtained with the addition of NAD^+ was defined as 0%.

Chain of recombinant human 15-PGDH (P15428 whole entry): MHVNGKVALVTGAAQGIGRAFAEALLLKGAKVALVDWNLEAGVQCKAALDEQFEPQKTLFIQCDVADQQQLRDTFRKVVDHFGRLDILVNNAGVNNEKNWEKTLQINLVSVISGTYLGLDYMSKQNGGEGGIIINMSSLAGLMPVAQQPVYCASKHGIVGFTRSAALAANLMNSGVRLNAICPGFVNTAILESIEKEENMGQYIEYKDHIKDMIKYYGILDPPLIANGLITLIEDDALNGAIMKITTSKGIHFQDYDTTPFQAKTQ

Row | SMILES | IC50 [nM]
1 | Cn1nc2n(c1=O)CCN(c1cccc3cc(C(=O)N4CCC[C@H](C(F)(F)F)C4)ccc13)C2 [compound 3] | < 3
2 | CN1Cc2cc(-c3cccc4cc(C(=O)N5CCC(F)(F)CC5)cnc34)ccc2C1=O [compound 99] | 3 to 10
3 | CC1CC2CN(c3cccc4cc(C(=O)N5CCCCC5)ccc34)CCN2C1=O (centres unmarked) [compound 28] | 3 to 10
4 | Cn1ccc2cc(-c3cccc4cc(C(=O)N5CCC(F)(F)CC5)ccc34)cnc2c1=O [compound 15] | < 3
5 | O=C(c1ccc2c(-c3ccc4c(=O)[nH]ncc4c3)cccc2c1)N1CC=CCC1 [compound 123] | < 3
6 | Cn1ccc2cc(-c3cccc4cc(C(=O)N5CCC(F)(F)CC5)cnc34)cnc2c1=O [compound 146] | 3 to 10
7 | CCN(CC)C(=O)c1ccc2c(-c3ccc4c(=O)[nH]ncc4c3)cccc2c1 [compound 155] | < 3
8 | O=C(c1ccc2c(-c3ccc4c(=O)[nH]ncc4c3)cccc2c1)N1CC2(CCC2)C1 [compound 121] | < 3
